Data published in US20260109732A1, “LIPID AMINES” (ModernaTX, Inc., priority 2021, published 2026).
Where a name gives a salt, the structure may show the parent alone.

Columns and labels:
HeLa cells [1] = test: CFTR Protein Expression Assay in HeLa Cells; format: cell-based, Human; conditions: LNPs encapsulating CFTR mRNA, N=4 wells; 5 h serum-free then 24 h; immunofluorescence vs PBS control
Procedure, shortened: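 HeLa cells dosed with CFTR mRNA LNPs (70 mM NaCl final buffer matrix) in serum-free MEM for 5 h, then complete MEM for 24 h. Fixed cells immunostained with anti-CFTR monoclonal and Alexa 488 secondary, imaged confocally; CFTR intensity per cell expressed as fold-change versus PBS buffer control, N=4 wells.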

[2] = Encapsulation of mRNA nanoparticles with lipid amines using Ribogreen assay; format: physicochemical
Procedure, shortened: (§1)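 Ionizable lipid nanoparticles (IL1:DSPC:cholesterol:PEG-DMG-2K) formed by vortex mixing at pH 4, loaded with luciferase or CFTR mRNA at N:P 4.93, neutralized with TRIS pH 8.12, then modified with lipid amine SA50 at pH 7.5. Particle diameter and PDI read by DLS; mRNA encapsulation by Ribogreen assay.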

HeLa cells [3] = test: Luciferase Protein Expression Assay in HeLa Cells; format: cell-based, Human; conditions: LNPs encapsulating Luciferase mRNA, 25 ng per well, N=4 wells; 5 h serum-free then 24 h; ONE-Glo
Procedure, shortened: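 HeLa cells received LNPs carrying luciferase mRNA (25 ng per well) or PBS in serum-free MEM for 5 h, then complete MEM for a further 24 h. Luciferase then read by ONE-Glo luminescence after lysis and reported as average RLU of 4 replicate wells.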

[4] = Diameter and PDI from DLS measurements of mRNA nanoparticles with lipid amines; format: physicochemical
Procedure, shortened: as §1

[5] = CFTR mRNA nanoparticle with lipid amine
[6] = Luciferase mRNA nanoparticle modified with lipid amine

Row | Compound | Average fold-change in CFTR signal intensity per cell compared to buffer control ± standard deviation (HeLa cells [1]) [fold-change] | % Encapsulation (Ribogreen) [2, 5] [%] | % Encapsulation (Ribogreen) [2, 6] [%] | Average Relative Light Units ± Standard Deviation (HeLa cells [3]) [Relative Light Units] | Diameter (nm) [4, 5] [nm] | PDI [4, 5] | Diameter (nm) [4, 6] [nm] | PDI [4, 6]
1 | CC[C@H](CC[C@@H](C)[C@H]1CC[C@H]2[C@@H]3CC=C4C[C@@H](SSCCC(=O)N(CCCCNCCC(N)(CC)CC)CCC(N)(CC)CC)CC[C@]4(C)[C@H]3CC[C@]12C)C(C)C [SA181, N-(3-amino-3-ethylpentyl)-N-(4-((3-amino-3-ethylpentyl)amino)butyl)-3-(((3S,8S,9S,10R,13R,14S,17R)-17-((2R,5R)-5-ethyl-6-methylheptan-2-yl)-10,13-dimethyl-2,3,4,7,8,9,10,11,12,13,14,15,16,17-tetradecahydro-1H-cyclopenta[a]phenanthren-3-yl)disulfaneyl)propanamide trihydrochloride] | 6.3 ± 0.4 | 98.7 | 99.5 | 12107.3 ± 1481.4 | 69 | 0.13 | 74 | 0.16
2 | CC[C@H](CC[C@@H](C)[C@H]1CC[C@H]2[C@@H]3CC=C4C[C@@H](OC(=O)CCCC(=O)N(CCC(C)N)CCC(C)N)CC[C@]4(C)[C@H]3CC[C@]12C)C(C)C (stereo partly drawn) [SA156, (3S,8S,9S,10R,13R,14S,17R)-17-((2R,5R)-5-ethyl-6-methylheptan-2-yl)-10,13-dimethyl-2,3,4,7,8,9,10,11,12,13,14,15,16,17-tetradecahydro-1H-cyclopenta[a]phenanthren-3-yl 5-(bis(3-aminobutyl)amino)-5-oxopentanoate dihydrochloride] | 14.6 ± 0.8 | 99.6 | 99.5 | 37662.9 ± 8258.6 | 76.5 | 0.18 | 74 | 0.15
3 | CC(C)CCC[C@@H](C)[C@H]1CC[C@H]2[C@@H]3CC=C4C[C@@H](OC(=O)C(C)C(=O)N(CCCN)CCCCNCCCN)CC[C@]4(C)[C@H]3CC[C@]12C.Cl.Cl.Cl (stereo partly drawn) [SA62, (3S,8S,9S,10R,13R,14S,17R)-10,13-Dimethyl-17-((R)-6-methylheptan-2-yl)-2,3,4,7,8,9,10,11,12,13,14,15,16,17-tetradecahydro-1H-cyclopenta[a]phenanthren-3-yl 3-((3-aminopropyl)(4-((3-aminopropyl)amino)butyl)amino)-2-methyl-3-oxopropanoate trihydrochloride] | 5.5 ± 1.3 | 99.6 | 99.0 | 18807.1 ± 6618.4 | 74.2 | 0.10 | 78 | 0.20
4 | CC(C)CCC[C@@H](C)[C@H]1CC[C@H]2[C@@H]3CC=C4C[C@@H](OC(=O)[C@H](CCCN)NCCCCCCN)CC[C@]4(C)[C@H]3CC[C@]12C.Cl.Cl.Cl [SA132, (3S,8S,9S,10R,13R,14S,17R)-10,13-dimethyl-17-((R)-6-methylheptan-2-yl)-2,3,4,7,8,9,10,11,12,13,14,15,16,17-tetradecahydro-1H-cyclopenta[a]phenanthren-3-yl (S)-5-amino-2-((6-aminohexyl)amino)pentanoate trihydrochloride] | 1.6 ± 0.1 | 96.8 | 99.3 | 131.6 ± 15.5 | 84.2 | 0.15 | 81 | 0.41
5 | CC(C)CCC[C@@H](C)[C@H]1CC[C@H]2[C@@H]3CC=C4C[C@@H](OC(=O)N(CCCCNCCC(C)(C)N)CCC(C)(C)N)CC[C@]4(C)[C@H]3CC[C@]12C [SA78, (3S,8S,9S,10R,13R,14S,17R)-10,13-dimethyl-17-((R)-6-methylheptan-2-yl)-2,3,4,7,8,9,10,11,12,13,14,15,16,17-tetradecahydro-1H-cyclopenta[a]phenanthren-3-yl (3-amino-3-methylbutyl)(4-((3-amino-3-methylbutyl)amino)butyl)carbamate trihydrochloride] | 11.3 ± 0.7 | 100 | 99.8 | 14341.8 ± 3497.6 | 87.7 | 0.17 | 76 | 0.20
6 | CC[C@H](CC[C@@H](C)[C@H]1CC[C@H]2[C@@H]3CC=C4C[C@@H](OC(=O)N(CCCN)CCCCCCN)CC[C@]4(C)[C@H]3CC[C@]12C)C(C)C [SA84, (3S,8S,9S,10R,13R,14S,17R)-17-((2R,5R)-5-Ethyl-6-methylheptan-2-yl)-10,13-dimethyl-2,3,4,7,8,9,10,11,12,13,14,15,16,17-tetradecahydro-1H-cyclopenta[a]phenanthren-3-yl (6-aminohexyl)(3-aminopropyl)carbamate dihydrochloride] | 5.0 ± 0.2 | 99.5 | 99.9 | 29639.9 ± 7554 | 82 | 0.13 | 74 | 0.16
7 | CC(C)CCC[C@@H](C)[C@H]1CC[C@H]2[C@@H]3CC=C4C[C@@H](OC(=O)CN(CCCCCCCCN)C(=O)CCCCN)CC[C@]4(C)[C@H]3CC[C@]12C [SA122, (3S,8S,9S,10R,13R,14S,17R)-10,13-Dimethyl-17-((R)-6-methylheptan-2-yl)-2,3,4,7,8,9,10,11,12,13,14,15,16,17-tetradecahydro-1H-cyclopenta[a]phenanthren-3-yl N-(8-aminooctyl)-N-(5-aminopentanoyl)glycinate dihydrochloride] | 14.8 ± 1.1 | 98.6 | 99.4 | 29605.6 ± 6326.9 | 83.5 | 0.13 | 75 | 0.15
8 | CC[C@H](CC[C@@H](C)[C@H]1CC[C@H]2[C@@H]3CC=C4C[C@@H](OC(=O)N(CCCCCCN)CCCCCCN)CC[C@]4(C)[C@H]3CC[C@]12C)C(C)C [SA82, (3S,8S,9S,10R,13R,14S,17R)-17-((2R,5R)-5-Ethyl-6-methylheptan-2-yl)-10,13-dimethyl-2,3,4,7,8,9,10,11,12,13,14,15,16,17-tetradecahydro-1H-cyclopenta[a]phenanthren-3-yl bis(6-aminohexyl)carbamate dihydrochloride] | 4.6 ± 0.2 | 99.4 | 99.1 | 33396.2 ± 4902.7 | 80.7 | 0.13 | 73 | 0.11
